According to patent publication US10301280B2 (Plexxikon Inc., priority 2012, dated 2019):

Columns and labels:
c-kit mutant D816V = c-kit mutant D816V (Homo sapiens (Human), UniProt P10721, D816V/DEL694-753); assay: c-Kit mutant D816V biochemical assay (AlphaScreen); conditions: c-kit D816V biochemical inhibitory activity
In short: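 His-tagged c-Kit D816V kinase domain (551-934, Δ694-753, E. coli) phosphorylating 30 nM biotin-(E4Y)10 at 10 μM ATP in HEPES pH 7.2 with Mg/Mn, 5% DMSO, 30 min at room temperature. PY20-acceptor/streptavidin-donor AlphaScreen detection after EDTA stop. IC50 from 8-point 1:3 titration.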

[1] = system: BaF3-FL KIT D816V or BaF3-FL KIT V560G/D816V cell line; assay: Cell-based assays of c-Kit mutant kinase activity (cell growth, ATPlite); conditions: at least one of the c-kit cell assays of Example 26
In short: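 BaF3 cells dependent on full-length human KIT (D816V or V560G/D816V) seeded at 1×10^4 cells/well in RPMI with 10% FBS. Eight-point 1:3 dilutions from 10 μM top final (0.2% DMSO), 3 days at 37° C., 5% CO2. ATPlite luminescence gave IC50.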

c-kit mutant D816V, sequence (P10721 other isoform, or with tags, fused parts or gaps D816V/del 694-753): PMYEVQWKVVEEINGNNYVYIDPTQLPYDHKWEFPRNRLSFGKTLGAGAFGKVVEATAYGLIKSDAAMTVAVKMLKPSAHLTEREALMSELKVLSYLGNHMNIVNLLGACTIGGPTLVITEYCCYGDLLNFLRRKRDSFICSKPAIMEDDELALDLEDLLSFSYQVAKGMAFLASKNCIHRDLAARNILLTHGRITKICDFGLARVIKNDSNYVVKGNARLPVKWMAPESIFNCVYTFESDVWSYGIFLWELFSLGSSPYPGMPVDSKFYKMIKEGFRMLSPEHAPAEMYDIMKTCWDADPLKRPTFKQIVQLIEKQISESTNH

SMILES | IC50 (c-kit mutant D816V) | IC50 [1]
Cc1n[nH]c(C(=O)Nc2cnc3[nH]c(C4=CCN(S(C)(=O)=O)CC4)cc3c2)c1Cl [P-2057, 4-chloro-3-methyl-N-[2-(1-methylsulfonyl-3,6-dihydro-2H-pyridin-4-yl)-1H-pyrrolo[2,3-b]pyridin-5-yl]-1H-pyrazole-5-carboxamide] | 0.0001 to 1 µM | < 10 µM
Cc1cc(C(=O)Nc2cnc3[nH]c(N4CCOCC4)cc3c2)[nH]n1 [P-2058, 3-methyl-N-(2-morpholino-1H-pyrrolo[2,3-b]pyridin-5-yl)-1H-pyrazole-5-carboxamide] | 0.0001 to 1 µM | < 10 µM
Cc1n[nH]c(C(=O)Nc2cnc3[nH]c(-c4cnc(N5CCN(C)CC5)nc4)cc3c2)c1C [P-2160, 3,4-dimethyl-N-[2-[2-(4-methylpiperazin-1-yl)pyrimidin-5-yl]-1H-pyrrolo[2,3-b]pyridin-5-yl]-1H-pyrazole-5-carboxamide] | 0.0001 to 1 µM | < 10 µM
Cc1n[nH]c(C(=O)Nc2cnc3[nH]nc(-c4cccc(N5CCN(C(=O)OC(C)(C)C)CC5)c4)c3c2)c1C [P-2162, tert-butyl 4-[3-[5-[(3,4-dimethyl-1H-pyrazole-5-carbonyl)amino]-1H-pyrazolo[3,4-b]pyridin-3-yl]phenyl]piperazine-1-carboxylate] | 1 to 10 µM | < 10 µM
Cc1n[nH]c(C(=O)Nc2cnc3[nH]c(-c4ccnc(C(C)C)c4)cc3c2)c1C [P-2163, N-[2-(2-isopropyl-4-pyridyl)-1H-pyrrolo[2,3-b]pyridin-5-yl]-3,4-dimethyl-1H-pyrazole-5-carboxamide] | 0.0001 to 1 µM | < 10 µM
[2H]c1c([2H])c([2H])c(-c2cc3cc(NC(=O)c4[nH]nc(C)c4C)cnc3[nH]2)c([2H])c1[2H] [P-2164, 3,4-dimethyl-N-[2-(2,3,4,5,6-pentadeuteriophenyl)-1H-pyrrolo[2,3-b]pyridin-5-yl]-1H-pyrazole-5-carboxamide] | 0.0001 to 1 µM | < 10 µM
Cc1n[nH]c(C(=O)Nc2cnc3[nH]c(-c4c(C)nn(C)c4C)cc3c2)c1C [P-2165, 3,4-dimethyl-N-[2-(1,3,5-trimethylpyrazol-4-yl)-1H-pyrrolo[2,3-b]pyridin-5-yl]-1H-pyrazole-5-carboxamide] | 1 to 10 µM | < 10 µM
Cc1n[nH]c(C(=O)Nc2cnc3[nH]nc(-c4cccc(N5CCNCC5)c4)c3c2)c1C [P-2166, 3,4-dimethyl-N-[3-(3-piperazin-1-ylphenyl)-1H-pyrazolo[3,4-b]pyridin-5-yl]-1H-pyrazole-5-carboxamide] | 0.0001 to 1 µM | < 10 µM
Cc1n[nH]c(C(=O)Nc2cnc3[nH]c(-c4c(C)n[nH]c4C)cc3c2)c1C [P-2167, N-[2-(3,5-dimethyl-1H-pyrazol-4-yl)-1H-pyrrolo[2,3-b]pyridin-5-yl]-3,4-dimethyl-1H-pyrazole-5-carboxamide] | 0.0001 to 1 µM | < 10 µM
Cc1nn(C2COC2)cc1-c1cc2cc(NC(=O)c3[nH]nc(C)c3C)cnc2[nH]1 [P-2168, 3,4-dimethyl-N-[2-[3-methyl-1-(oxetan-3-yl)pyrazol-4-yl]-1H-pyrrolo[2,3-b]pyridin-5-yl]-1H-pyrazole-5-carboxamide] | 0.0001 to 1 µM | < 10 µM
Cc1n[nH]c(C(=O)Nc2cnc3[nH]c(-c4ccc(F)c(-c5nn[nH]n5)c4)cc3c2)c1C [P-2174, N-[2-[4-fluoro-3-(2H-tetrazol-5-yl)phenyl]-1H-pyrrolo[2,3-b]pyridin-5-yl]-3,4-dimethyl-1H-pyrazole-5-carboxamide] | 0.0001 to 1 µM | < 10 µM
Cc1n[nH]c(C(=O)Nc2cnc3[nH]c(-c4cccnc4C(F)(F)F)cc3c2)c1C [P-2176, 3,4-dimethyl-N-[2-[2-(trifluoromethyl)-3-pyridyl]-1H-pyrrolo[2,3-b]pyridin-5-yl]-1H-pyrazole-5-carboxamide] | 0.0001 to 1 µM | < 10 µM
CCc1cc(-c2cc3cc(NC(=O)c4[nH]nc(C)c4C)cnc3[nH]2)ccn1 [P-2177, N-[2-(2-ethyl-4-pyridyl)-1H-pyrrolo[2,3-b]pyridin-5-yl]-3,4-dimethyl-1H-pyrazole-5-carboxamide] | 0.0001 to 1 µM | < 10 µM
CCc1ccc(-c2cc3cc(NC(=O)c4[nH]nc(C)c4C)cnc3[nH]2)cn1 [P-2178, N-[2-(6-ethyl-3-pyridyl)-1H-pyrrolo[2,3-b]pyridin-5-yl]-3,4-dimethyl-1H-pyrazole-5-carboxamide] | 0.0001 to 1 µM | < 10 µM
Cc1n[nH]c(C(=O)Nc2cnc3[nH]c(-c4ccnc5c4OCCO5)cc3c2)c1C [P-2179, N-[2-(2,3-dihydro-[1,4]dioxino[2,3-b]pyridin-8-yl)-1H-pyrrolo[2,3-b]pyridin-5-yl]-3,4-dimethyl-H-pyrazole-5-carboxamide] | 0.0001 to 1 µM | < 10 µM
Cc1n[nH]c(C(=O)Nc2cnc3[nH]c(-c4ccccc4C(F)(F)F)cc3c2)c1C [P-2180, 3,4-dimethyl-N-[2-[2-(trifluoromethyl)phenyl]-1H-pyrrolo[2,3-b]pyridin-5-yl]-1H-pyrazole-5-carboxamide] | 0.0001 to 1 µM | < 10 µM
Cc1ccc(-c2cc3cc(NC(=O)c4[nH]nc(C)c4C)cnc3[nH]2)c(C)c1 [P-2181, N-[2-(2,4-dimethylphenyl)-1H-pyrrolo[2,3-b]pyridin-5-yl]-3,4-dimethyl-1H-pyrazole-5-carboxamide] | 0.0001 to 1 µM | < 10 µM
Cc1n[nH]c(C(=O)Nc2cnc3[nH]c(-c4ccccc4OC(F)(F)F)cc3c2)c1C [P-2182, 3,4-dimethyl-N-[2-[2-(trifluoromethoxy)phenyl]-1H-pyrrolo[2,3-b]pyridin-5-yl]-1H-pyrazole-5-carboxamide] | 0.0001 to 1 µM | < 10 µM
COc1cncc(-c2cc3cc(NC(=O)c4[nH]nc(C)c4C)cnc3[nH]2)c1 [P-2183, N-[2-(5-methoxy-3-pyridyl)-1H-pyrrolo[2,3-b]pyridin-5-yl]-3,4-dimethyl-1H-pyrazole-5-carboxamide] | 0.0001 to 1 µM | < 10 µM
Cc1cncc(-c2cc3cc(NC(=O)c4[nH]nc(C)c4C)cnc3[nH]2)c1 [P-2184, 3,4-dimethyl-N-[2-(5-methyl-3-pyridyl)-1H-pyrrolo[2,3-b]pyridin-5-yl]-1H-pyrazole-5-carboxamide] | 0.0001 to 1 µM | < 10 µM
Cc1n[nH]c(C(=O)Nc2cnc3[nH]c(-c4ccnc(N5CCN(S(C)(=O)=O)CC5)c4)cc3c2)c1C [P-2186, 3,4-dimethyl-N-[2-[2-(4-methylsulfonylpiperazin-1-yl)-4-pyridyl]-1H-pyrrolo[2,3-b]pyridin-5-yl]-1H-pyrazole-5-carboxamide] | 0.0001 to 1 µM | < 10 µM
Cc1n[nH]c(C(=O)Nc2cnc3[nH]c(-c4ccnc(N5CCN(C(=O)C6CC6)CC5)c4)cc3c2)c1C [P-2187, N-[2-[2-[4-(cyclopropanecarbonyl)piperazin-1-yl]-4-pyridyl]-1H-pyrrolo[2,3-b]pyridin-5-yl]-3,4-dimethyl-1H-pyrazole-5-carboxamide] | 0.0001 to 1 µM | < 10 µM
Cc1n[nH]c(C(=O)Nc2cnc3[nH]c(-c4ccnc(N5CCN(C(=O)CC#N)CC5)c4)cc3c2)c1C [P-2189, N-[2-[2-[4-(2-cyanoacetyl)piperazin-1-yl]-4-pyridyl]-1H-pyrrolo[2,3-b]pyridin-5-yl]-3,4-dimethyl-1H-pyrazole-5-carboxamide] | 0.0001 to 1 µM | < 10 µM
